Experimental data from ChEMBL document CHEMBL5604063, “ASAP - DENV-2 NS2B-NS3 protease fluorescence dose response” (2024).
Several values for one entry are separate records, joined by “and”; a condition that tells them apart may be missing. Equal values may be shown once.

Legend:
Genome polyprotein [1] = target: T1, Genome polyprotein (dengue virus type 2, UniProt P29990); format: functional, Thailand/16681/1984
Genome polyprotein [2] = target: T1, Genome polyprotein; format: functional, Thailand/16681/1984; remark: listed apart in the source

T1 sequence (P29990 1346-1475 limits assumed): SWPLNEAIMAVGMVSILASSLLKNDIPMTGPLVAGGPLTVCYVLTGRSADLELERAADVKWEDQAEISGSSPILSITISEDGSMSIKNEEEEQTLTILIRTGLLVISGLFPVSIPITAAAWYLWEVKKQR
T1 sequence (P29990 1476-2093 limits assumed): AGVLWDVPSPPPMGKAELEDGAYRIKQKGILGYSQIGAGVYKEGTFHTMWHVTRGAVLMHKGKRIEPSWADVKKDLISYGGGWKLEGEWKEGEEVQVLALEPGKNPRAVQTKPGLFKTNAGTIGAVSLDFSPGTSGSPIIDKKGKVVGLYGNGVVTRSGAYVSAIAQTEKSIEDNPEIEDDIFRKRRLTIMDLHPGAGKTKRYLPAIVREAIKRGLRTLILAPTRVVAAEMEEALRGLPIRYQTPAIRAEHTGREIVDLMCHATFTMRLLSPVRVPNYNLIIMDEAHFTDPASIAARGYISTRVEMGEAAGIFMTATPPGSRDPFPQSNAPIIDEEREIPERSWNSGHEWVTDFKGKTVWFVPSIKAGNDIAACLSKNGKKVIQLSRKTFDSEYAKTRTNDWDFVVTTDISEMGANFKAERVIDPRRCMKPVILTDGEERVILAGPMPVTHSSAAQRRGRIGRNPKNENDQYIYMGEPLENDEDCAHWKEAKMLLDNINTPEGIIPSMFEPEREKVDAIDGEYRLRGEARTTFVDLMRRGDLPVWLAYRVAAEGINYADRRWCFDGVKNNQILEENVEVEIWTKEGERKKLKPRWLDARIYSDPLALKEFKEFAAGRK

Row | SMILES | IC50 (Genome polyprotein [1]) | IC50 (Genome polyprotein [2]) [µM]
1 | O=C(O)c1cc2cc(-c3cc(Cl)cc4c3CCNC4=O)ccc2[nH]1 | > 100 µM | > 99.5
2 | Cc1[nH]c2ccc(Cl)cc2c1Cc1ccc(-c2nnn[nH]2)cc1 | 21 µM | 42.6
3 | CNC(=O)[C@H](Nc1cc(CNC(=O)OC(C)(C)C)cc(C(=O)O)c1)c1cc(Cl)cc(C2CC2)c1 | > 100 µM | > 99.5
4 | O=C(Nc1cccc([C@@H]2C[C@H]2C(=O)O)c1)c1cc(Cl)cc2[nH]ncc12 | > 100 µM | > 99.5
5 | N#Cc1cc(-c2ccc3[nH]c(C(=O)O)cc3c2)cc(N2CCCC2)c1 | > 100 µM | 63.4
6 | N#C[C@]1(Nc2cccc(-c3nn[nH]n3)c2)C(=O)Nc2ccc(Cl)cc21 | > 100 µM | > 99.5
7 | C=CC[C@H](Nc1cncc(Cl)c1)c1cccc(-c2nn[nH]n2)c1 | > 100 µM | > 99.5
8 | C=CC[C@H](Nc1cccc(Cl)c1)c1cccc(-c2nn[nH]n2)c1 | 41.5 µM and 38.9 µM | > 99.5
9 | O=C(O)CCCn1cnc(-c2cc(Cl)cc(NC(=O)OCc3ccccc3)c2)n1 | > 100 µM | > 99.5
10 | N#C[C@H](Nc1cncc(-c2nn[nH]n2)c1)c1cc(Cl)cc(NC(=O)OCc2ccccc2)c1 | 11 µM and 10.8 µM | 18.7
11 | N#C[C@H](c1cc(Cl)cc(C2CC2)c1)N1c2cnccc2C[C@H]1C(=O)O | > 100 µM | > 99.5
12 | NCc1cc(CCc2cc(Cl)cc(NC(=O)OCc3ccccc3)c2)cc(C(=O)O)c1 | > 100 µM | > 99.5
13 | N#C[C@H](Nc1cccc(-c2nn[nH]n2)c1)c1cc(Cl)cc2[nH]ncc12 | 88.3 µM | > 99.5
14 | Clc1cc([C@@H]2C[C@H]2c2cccc(-c3nn[nH]n3)c2)c2cn[nH]c2c1 | 20.4 µM and 23.8 µM | 66.2
15 | O=C(Nc1cc(Cl)cc([C@H]2[C@H](CO)[C@@H]2c2cccc(-c3nn[nH]n3)c2)c1)OCc1ccccc1 | 11.3 µM and 13.5 µM | 25.2
16 | N#C[C@H](Nc1ccc2c(c1)CNC2)c1cc(Cl)cc2[nH]ncc12 | > 100 µM | > 99.5
17 | NCc1cc(Cl)cc(-c2ccc3[nH]c(C(=O)O)cc3c2)c1 | > 100 µM | > 99.5
18 | O=C(Nc1cc(Cl)cc([C@H]2C[C@@H]2c2cccc(-c3nnn[nH]3)c2)c1)OCc1ccccc1 | 19.1 µM | 16.2
19 | N#C[C@H](Nc1ccc(CCC(=O)O)cn1)c1cc(Cl)cc(C2CC2)c1 | > 100 µM | > 99.5

Row | SMILES | IC50 (Genome polyprotein [1]) | IC50 (Genome polyprotein [2]) [µM]
20 | N#C[C@H](Nc1cccn(CC(=O)O)c1=O)c1cc(Cl)cc(C2CC2)c1 | > 100 µM | > 99.5
21 | CNc1ncc(C(F)(F)F)cc1-c1ccc2[nH]c(C(=O)O)cc2c1 | > 100 µM | > 99.5
22 | O=C(Nc1cc(Cl)cc(C(=O)N2CCC(C(=O)O)CC2)c1)OCc1ccccc1 | > 100 µM | > 99.5
23 | O=C(Nc1cc(Cl)cc([C@H](Nc2cccc(-c3nn[nH]n3)c2)C(=O)NC2CCOCC2)c1)OCc1ccccc1 | 13.2 µM and 19.9 µM | 40.6
24 | O=C(O)c1cccc(CCc2cc(Cl)cc3[nH]ncc23)c1 | > 100 µM | > 99.5
25 | O=C(Nc1cc(Cl)cc(CNc2cccc(-c3nn[nH]n3)c2)c1)OCc1ccccc1 | 8.36 µM and 5.15 µM | 11.6
26 | O=C(Nc1cc(Cl)cc(-c2cn(C3CCCC3)nc2C(=O)O)c1)OCc1ccccc1 | 42.7 µM and 31.7 µM | 34.3
27 | NCc1cc(NC(=O)c2cc(Cl)cc(NC(=O)OCc3ccccc3)c2)cc([C@@H]2C[C@H]2C(=O)O)c1 | > 100 µM | > 99.5
28 | CNC(=O)[C@H](Nc1cc(CN)cc(C(=O)O)c1)c1cc(Cl)cc(C2CC2)c1 | > 100 µM | > 99.5
29 | N#Cc1cc(CN)cc([C@H]2C[C@@H]2c2cc(Cl)cc(NC(=O)OCc3ccccc3)c2)c1 | > 100 µM | > 99.5
30 | NCc1cc(CC(=O)O)cc(NC(=O)c2cc(Cl)cc(NC(=O)OCc3ccccc3)c2)c1 | > 100 µM | > 99.5
31 | O=C(Nc1cc(Cl)cc(C(=O)N2CCC[C@H]2C(=O)O)c1)OCc1ccccc1 | > 100 µM | > 99.5
32 | C[C@@]1(c2cccc(CN)c2)C[C@H]1c1cc(Cl)cc(NC(=O)OCc2ccccc2)c1 | > 100 µM | 17.5
33 | COc1cc(-c2cc(Cl)cc(NC(=O)OCc3ccccc3)c2)c(OC)cc1CC(=O)O | 18.4 µM and 18.3 µM | 32.8
34 | O=C(Nc1cc(Cl)cc([C@H]2Nc3ccc(-c4nn[nH]n4)cc3[C@H]3OCCC[C@@H]23)c1)OCc1ccccc1 | > 100 µM | > 99.5
35 | Cc1c(C(=O)Nc2cccc(-c3nnn[nH]3)c2)cnn1-c1ccc(Cl)cc1 | > 100 µM | > 99.5
36 | OCC#C[C@H](Nc1ccc2c(c1)CNC2)c1cc(Cl)cc2[nH]ncc12 | 92.7 µM and 63.7 µM | 25.1
37 | CNC(=O)[C@H](Nc1cc(Cl)cc(C2CC2)c1)c1ccc(-c2nn[nH]n2)cc1 | 99.6 µM and > 100 µM | > 99.5
38 | NCc1cccc([C@H](C#CCO)Nc2cc(Cl)cc(NC(=O)OCc3ccccc3)c2)c1 | > 100 µM | 64.9

Row | SMILES | IC50 (Genome polyprotein [1]) | IC50 (Genome polyprotein [2]) [µM]
39 | CNC(=O)[C@H](Nc1cccc(C2(C(=O)O)CCC2)c1)c1cc(Cl)cc(C2CC2)c1 | > 100 µM | > 99.5
40 | CNC(=O)c1cc(CN)cc([C@@H]2C[C@H]2c2cc(Cl)cc(NC(=O)OCc3ccccc3)c2)c1 | > 100 µM | 29.6
41 | N#Cc1cc(Cl)cc(-c2ccc3[nH]c(C(=O)O)cc3c2)c1 | > 100 µM and 82.1 µM | > 99.5
42 | O=C(O)C[C@H]1CCCN1C(=O)c1cc(Cl)cc(NC(=O)OCc2ccccc2)c1 | > 100 µM | > 99.5
43 | C[C@@]1(c2cc(Cl)cc(NC(=O)OCc3ccccc3)c2)C[C@H]1c1cccc(CN)c1 | > 100 µM | 88.1
44 | O=C(O)c1cc2cc(-c3cc(Cl)cc(C4CC4)c3)ccc2[nH]1 | 11.4 µM and 11 µM | 15.7
45 | CNC(=O)[C@H](Nc1cncc(C(=O)O)c1)c1cc(Cl)cc(C2CC2)c1 | > 100 µM | > 99.5
46 | C[C@H](C(=O)O)N(C)C(=O)c1cc(Cl)cc(NC(=O)OCc2ccccc2)c1 | > 100 µM | > 99.5
47 | C[C@](O)(Cc1cc(Cl)cc(NC(=O)OCc2ccccc2)c1)c1cccc(CN)c1 | > 100 µM | > 99.5
48 | CN(C)CCNC(=O)[C@H](Nc1cccc(-c2nn[nH]n2)c1)c1cc(Cl)cc(NC(=O)OCc2ccccc2)c1 | 47.2 µM and 67.4 µM and > 100 µM | 97.3
49 | CCc1cc(Br)cc2c(Cc3ccc(-c4nnn[nH]4)cc3)c[nH]c12 | 8.03 µM and 9.26 µM | 12
50 | CN(C)C(=O)Nc1cccc([C@@H]2C[C@H]2c2cc(Cl)cc(NC(=O)OCc3ccccc3)c2)c1 | > 100 µM | > 99.5
51 | CNC(=O)[C@H](Nc1cc(CN)cc(C(=O)O)c1)c1cc(Cl)cc(NC(=O)OCc2ccccc2)c1 | > 100 µM | > 99.5
52 | CC(C)[C@H](CC(=O)O)NC(=O)c1cc(Cl)cc(NC(=O)OCc2ccccc2)c1 | > 100 µM | > 99.5
53 | N#C[C@H](Nc1ccc(CC(=O)O)cn1)c1cc(Cl)cc(C2CC2)c1 | > 100 µM | > 99.5
54 | CNC(=O)[C@H](Nc1cc(CN)cc(-c2nn[nH]n2)c1)c1cc(Cl)cc(C2CC2)c1 | > 100 µM | > 99.5
55 | O=C(Nc1cc(Cl)cc(C(=O)Nc2ccnc(C(=O)O)c2)c1)OCc1ccccc1 | > 100 µM | 66.9
56 | O=C(Nc1cc(Cl)cc(C(=O)N2CC[C@H](C(=O)O)C2)c1)OCc1ccccc1 | > 100 µM | > 99.5
